In brackets after ≈: the same amount, converted by molar mass.
Legend:
[1] = test system: Mycobacterium tuberculosis; experiment: Antitubercular activity against Mycobacterium tuberculosis H37Rv; format: functional
[2] = test system: Mycobacterium tuberculosis; experiment: Antitubercular activity against Mycobacterium tuberculosis 14A1 deficient in nitroreductase rv3547 assessed as inhibition of all visible growth grown under 7H9/ glucose liquid culture incubated for 7 to 14 days; format: functional; conditions: time 7-14 day
[3] = test system: Mycobacterium tuberculosis; experiment: Ratio of MIC for antitubercular activity against Mycobacterium tuberculosis H37Rv ATCC 27294 grown under 7H9/ glucose liquid culture in presence of BSA to MIC for antitubercular activity against Mycobacterium tuberculosis H37Rv ATCC 27294 grown under 7H9/ glucose liquid culture; format: functional; conditions: read-out: MIC>99
[4] = Cytotoxicity in human MRC5 cells by neutral red uptake assay; format: cell-based
[5] = test system: Mycobacterium tuberculosis; experiment: Antitubercular activity against Mycobacterium tuberculosis H37Rv ATCC 27294 grown under Middlebrook 7H9 Broth assessed as inhibition of all visible growth incubated for 7 to 14 days; format: functional; conditions: time 7-14 day
[6] = test system: Mycobacterium tuberculosis; experiment: Antitubercular activity against Mycobacterium tuberculosis H37Rv ATCC 27294 grown under GAST/Fe medium assessed as inhibition of all visible growth incubated for 7 to 14 days; format: functional; conditions: time 7-14 day
[7] = test system: Mycobacterium tuberculosis; experiment: Antitubercular activity against Mycobacterium tuberculosis H37Rv ATCC 27294 grown under 7H9/ glucose liquid culture in presence of BSA assessed as inhibition of all visible growth incubated for 7 to 14 days; format: functional; conditions: time 7-14 day
[8] = (§1) Inhibition of Mycobacterium tuberculosis thymidylate kinase in presence of ATP, dTMP, NADH and phosphoenol pyruvate by spectrophotometric assay
[9] = test system: Mycobacterium tuberculosis; experiment: Antitubercular activity against Mycobacterium tuberculosis H37Rv ATCC 27294 grown under 7H9/ADC assessed as inhibition of all visible growth incubated for 7 to 14 days; format: functional; conditions: time 7-14 day
[10] = Genotoxicity in Salmonella typhimurium TA98 up to 349 uM incubated for 48 hrs in absence of rat liver S9 fraction by Ames test; format: toxicity; conditions: salmonella enterica subsp. enterica serovar typhimurium, s9, 48 h
[11] = Genotoxicity in Salmonella typhimurium TA100 up to 349 uM incubated for 48 hrs in presence of rat liver S9 fraction by Ames test; format: toxicity, subcellular; conditions: salmonella enterica subsp. enterica serovar typhimurium, s9, 48 h
[12] = Genotoxicity in Salmonella typhimurium TA100 up to 349 uM incubated for 48 hrs in absence of rat liver S9 fraction by Ames test; format: toxicity; conditions: salmonella enterica subsp. enterica serovar typhimurium, s9, 48 h
[13] = Genotoxicity in Salmonella typhimurium TA98 up to 349 uM incubated for 48 hrs in presence of rat liver S9 fraction by Ames test; format: toxicity, subcellular; conditions: salmonella enterica subsp. enterica serovar typhimurium, s9, 48 h
[14] = Inhibition of Mycobacterium tuberculosis thymidylate kinase
[15] = test system: Mycobacterium tuberculosis; experiment: as §1

SMILES | MIC ratio, with BSA / without BSA [3] [µM] | CC50 [4] [µM] | MIC99 [5] [µM] | MIC99 [6] [µM] | MIC99 [7] [µM] | also measured
O=C(CSc1nc2ccccc2c(=O)[nH]1)NC1CCCCC1 |  |  |  |  |  | MIC [1]: 0.3 µM
O=c1[nH]c(SCc2cc([N+](=O)[O-])cc([N+](=O)[O-])c2)nc2ccc(N3CCOCC3)cc12 | 0.66 | > 64 | 4.7 (≈ 2.08 µg/mL) | 3.13 (≈ 1.39 µg/mL) | 3.13 | MIC99 [2]: 19 µM (≈ 8.43 µg/mL)
O=c1[nH]c(SCc2cc([N+](=O)[O-])cc([N+](=O)[O-])c2)nc2cccnc12 | > 2.6 | > 64 | 19 (≈ 6.83 µg/mL) | 12.5 (≈ 4.49 µg/mL) | > 50 | MIC99 [2]: 50 µM (≈ 18 µg/mL)
O=c1[nH]c(SCc2ccc(-c3ccccc3)cc2)nc2ccccc12 |  | > 64 | > 50 |  |  | 
O=c1[nH]c(SCc2cc([N+](=O)[O-])cc([N+](=O)[O-])c2)nc2cnccc12 |  | > 64 | > 50 |  |  | 
O=c1[nH]c(SCc2cc([N+](=O)[O-])cc([N+](=O)[O-])c2)nc2ccncc12 |  | > 64 | > 50 |  |  | 
O=c1[nH]c(SCc2cc([N+](=O)[O-])cc([N+](=O)[O-])c2)nc2c(Cl)cccc12 |  | > 64 | > 50 |  |  | 
CCOC(=O)c1c(-c2ccccc2)oc2ccc(O)c(CN3CCC(C)CC3)c12 |  |  |  |  |  | MIC [1]: 1 µg/mL
O=c1[nH]c(SCc2cc([N+](=O)[O-])cc([N+](=O)[O-])c2)nc2ncccc12 |  | > 64 | ≥ 50 |  |  | 
O=c1[nH]c([S+]([O-])Cc2cc([N+](=O)[O-])cc([N+](=O)[O-])c2)nc2ccccc12 (stereo not given) |  | > 64 | 50 (≈ 18.7 µg/mL) |  |  | IC50 [8]: 217 µM
CC1CCN(Cc2c(O)ccc3oc4c5ccccc5oc(=O)c4c23)CC1 |  |  |  |  |  | MIC [1]: 0.125 µg/mL
COc1ccc(CSc2nc3ccccc3c(=O)[nH]2)cc1 |  | > 64 | > 50 |  |  | 
O=c1[nH]c(SCc2cccc([N+](=O)[O-])c2)nc2ccccc12 |  | > 64 | > 50 |  |  | 
COc1cccc(CSc2nc3ccccc3c(=O)[nH]2)c1 | > 64 | > 64 | 0.78 (≈ 0.233 µg/mL) | 50 (≈ 14.9 µg/mL) | > 50 | MIC99 [9]: > 50 µM
O=c1[nH]c(SCc2ccccc2[N+](=O)[O-])nc2ccccc12 | > 4 | > 64 | 12.5 (≈ 3.92 µg/mL) | 25 (≈ 7.83 µg/mL) | > 50 | MIC99 [9]: > 50 µM
CSc1nc(-c2cccc(Br)c2)c(C#N)c(=O)[nH]1 |  | > 64 | 25 (≈ 8.05 µg/mL) |  |  | IC50 [8]: 82 µM
O=c1[nH]c(SCc2cc([N+](=O)[O-])cc([N+](=O)[O-])c2)nc2ccccc12 | 2.6 | > 64 | 0.6 (≈ 0.215 µg/mL) | 0.78 (≈ 0.28 µg/mL) | 1.56 | Activity [10]: Toxic; MIC99 [2]: 12.5 µM (≈ 4.48 µg/mL); Activity [11]: Non-Toxic; MIC99 [9]: 2.3 µM (≈ 0.824 µg/mL); IC50 [8]: 120 µM; Activity [12]: Non-Toxic; Activity [13]: Non-Toxic
CN(C)c1ccc2nc(SCc3cc([N+](=O)[O-])cc([N+](=O)[O-])c3)[nH]c(=O)c2c1 |  | 14 | > 50 |  |  | 
O=c1[nH]c(SCc2c([N+](=O)[O-])cccc2[N+](=O)[O-])nc2ccccc12 |  | > 64 | > 50 |  |  | 
O=c1[nH]c(SCc2cc([N+](=O)[O-])cc([N+](=O)[O-])c2)nc2cccc(Cl)c12 |  | > 64 | ≥ 50 |  |  | 
Oc1nc(SCc2ccc(Cl)cc2)nc2ccccc12 |  | > 64 | > 50 |  |  | 
COc1cccc(-c2cc(SC)c(C#N)c(=O)[nH]2)c1 |  |  |  |  |  | IC50 [14]: 1.5 µM; MIC [1]: > 64 µM
COc1ccccc1CSc1nc2ccccc2c(=O)[nH]1 |  |  | > 50 |  |  | 
CN1CCN(c2ccc3nc(SCc4cc([N+](=O)[O-])cc([N+](=O)[O-])c4)[nH]c(=O)c3c2)CC1 | 1 | 49 | 9.4 (≈ 4.29 µg/mL) | 9.4 (≈ 4.29 µg/mL) | 9.4 | MIC99 [2]: 37 µM (≈ 16.9 µg/mL)
CCOC(=O)C1=C(NC(=O)c2c(F)c(F)c(F)c(F)c2F)OC2CN(CC)CCC12 (stereo not given) |  |  |  |  |  | MIC [1]: 0.69 µM

SMILES | MIC ratio, with BSA / without BSA [3] [µM] | CC50 [4] [µM] | MIC99 [5] [µM] | MIC99 [6] [µM] | MIC99 [7] [µM] | also measured
NNC(=O)c1ccncc1 |  |  |  |  |  | MIC>99 [15]: 0.15 µM
O=c1[nH]c(SCc2cc([N+](=O)[O-])cc([N+](=O)[O-])c2)nc2ccc(Br)cc12 | 11.8 | > 64 | 3.13 (≈ 1.37 µg/mL) | 3.13 (≈ 1.37 µg/mL) | 37 | MIC99 [2]: > 50 µM
O=C(CSc1nc2c(F)cccc2c(=O)[nH]1)NC1CCC(F)(F)CC1 |  |  |  |  |  | MIC [1]: 0.09 µM
Cc1ccc(CSc2nc(O)c3ccccc3n2)cc1 |  | > 64 | > 50 |  |  | 
CCOC(=O)C1=C(NC(=O)c2c(F)c(F)c(F)c(F)c2F)OC(C(N)=O)C1C (stereo not given) |  |  |  |  |  | MIC [1]: 0.5 µM
CSc1cc(-c2ccccc2)nc(O)c1C#N |  |  |  |  |  | MIC [1]: > 64 µM
O=[N+]([O-])c1ccc2c(c1)Cc1ccccc1-2 [2-NITROFLUORENE] |  |  |  |  |  | Activity [10]: Toxic
N#Cc1c(-c2cccc(Br)c2)nc(SCc2cc([N+](=O)[O-])cc([N+](=O)[O-])c2)[nH]c1=O |  | > 64 | > 64 |  |  | IC50 [8]: 4.3 µM
O=c1[nH]c(SCc2ccc([N+](=O)[O-])o2)nc2ccccc12 |  | 35 | > 50 |  |  | 
O=c1[nH]c(SCc2ccccc2Cl)nc2ccccc12 | > 21.7 | > 65 | 2.3 (≈ 0.696 µg/mL) | 37 (≈ 11.2 µg/mL) | > 50 | MIC99 [9]: > 50 µM
O=c1[nH]c(SCc2ccc([N+](=O)[O-])cc2)nc2ccccc12 |  | > 64 | ≥ 50 |  |  | 
O=c1[nH]c(SCc2ccc([N+](=O)[O-])cc2[N+](=O)[O-])nc2ccccc12 |  | > 64 | > 50 |  |  | 
O=c1[nH]c(SCc2cc([N+](=O)[O-])cc(C(F)(F)F)c2)nc2ccccc12 |  | > 64 | > 50 |  |  | 
O=c1[nH]c(SCc2cc([N+](=O)[O-])cc([N+](=O)[O-])c2)nc2cc(Cl)ccc12 | 10.8 | > 64 | 2.3 (≈ 0.903 µg/mL) | 0.72 (≈ 0.283 µg/mL) | 25 | MIC99 [9]: 25 µM (≈ 9.82 µg/mL)
O=c1[nH]c(SCc2cc([N+](=O)[O-])cc([N+](=O)[O-])c2)nc2ccc(F)cc12 | 52 | > 64 | 1.2 (≈ 0.452 µg/mL) | 1.2 (≈ 0.452 µg/mL) | 6.25 | MIC99 [2]: 6.25 µM (≈ 2.35 µg/mL)
O=c1[nH]c(SCc2ccc(Cl)c(Cl)c2)nc2ccccc12 |  | > 64 | > 50 |  |  | 
O=c1[nH]c(SCc2cc([N+](=O)[O-])cc([N+](=O)[O-])c2)nc2ccc(N3CCCCC3)cc12 |  | > 64 | > 50 |  |  | 
O=c1[nH]c(SCc2ccccc2)nc2ccccc12 | > 4 | > 64 | 12.5 (≈ 3.35 µg/mL) | 19 (≈ 5.1 µg/mL) | > 50 | MIC99 [9]: > 50 µM
O=c1[nH]c(SCc2cccs2)nc2ccccc12 |  | > 64 | > 50 |  |  | 
Cn1c(SCc2cc([N+](=O)[O-])cc([N+](=O)[O-])c2)nc2ccccc2c1=O | 2 | > 64 | 1.56 (≈ 0.581 µg/mL) | 0.39 (≈ 0.145 µg/mL) | 3.13 | MIC99 [9]: 3.13 µM (≈ 1.17 µg/mL)
Cc1ccc2nc(SCc3cc([N+](=O)[O-])cc([N+](=O)[O-])c3)[nH]c(=O)c2c1 | 4 | > 64 | 1.56 (≈ 0.581 µg/mL) | 1.56 (≈ 0.581 µg/mL) | 6.25 | MIC99 [2]: > 50 µM
N#Cc1c(-c2cccc(Br)c2)nc(SCc2ccccc2)[nH]c1=O |  | > 36 | 25 (≈ 9.96 µg/mL) |  |  | IC50 [8]: 49 µM
O=c1[nH]c(SCc2cc([N+](=O)[O-])cc([N+](=O)[O-])c2)nc2ccc(Cl)cc12 | 4 | > 64 | 0.78 (≈ 0.306 µg/mL) | 0.2 (≈ 0.0786 µg/mL) | 3.13 | MIC99 [9]: 4.7 µM (≈ 1.85 µg/mL)
O=c1[nH]c(SCc2ccc([N+](=O)[O-])s2)nc2ccccc12 |  | > 64 | 350 (≈ 112 µg/mL) |  |  | 
Oc1nc(SCc2cccc(Cl)c2)nc2ccccc12 | > 16 | > 64 | 3.13 (≈ 0.948 µg/mL) | 19 (≈ 5.75 µg/mL) | > 50 | MIC99 [9]: > 50 µM

Reference: ChEMBL document CHEMBL4765469, “2-((3,5-Dinitrobenzyl)thio)quinazolinones: Potent Antimycobacterial Agents Activated by Deazaflavin (F)-Dependent Nitroreductase (Ddn)” (J Med Chem, 2021)
